Data: ChEMBL document CHEMBL1144577, “1,5-Biaryl pyrrole derivatives as EP1 receptor antagonists. Structure-activity relationships of 6-substituted and 5,6-disubstituted benzoic acid derivatives” (Bioorg Med Chem Lett, 2007)

What was measured:
[1] = Blood clearance in rat; assay type: ADME, organism-based
[2] = Volume of distribution at steady state in rat; assay type: ADME, organism-based; details: in vivo, read-out: Vss
[3] = test system: Rattus norvegicus; test: Reversal of hypersensitivity in po dosed FCA rat model of inflammatory pain; assay type: functional
[4] = test system: Rattus norvegicus; test: Normalized AUC (0 to t) in rat at 3 mg/kg, po; assay type: ADME, organism-based; parameters: dose 3 mg/kg, route oral; details: in vivo
[5] = target: T1, Prostaglandin E2 receptor EP1 subtype (Homo sapiens, UniProt P34995); test: Displacement of [3H]PGE2 from human recombinant EP1 receptor expressed in CHOK1 cell membrane; assay type: cell membranes, CHO-K1
T1 sequence (P34995 whole entry): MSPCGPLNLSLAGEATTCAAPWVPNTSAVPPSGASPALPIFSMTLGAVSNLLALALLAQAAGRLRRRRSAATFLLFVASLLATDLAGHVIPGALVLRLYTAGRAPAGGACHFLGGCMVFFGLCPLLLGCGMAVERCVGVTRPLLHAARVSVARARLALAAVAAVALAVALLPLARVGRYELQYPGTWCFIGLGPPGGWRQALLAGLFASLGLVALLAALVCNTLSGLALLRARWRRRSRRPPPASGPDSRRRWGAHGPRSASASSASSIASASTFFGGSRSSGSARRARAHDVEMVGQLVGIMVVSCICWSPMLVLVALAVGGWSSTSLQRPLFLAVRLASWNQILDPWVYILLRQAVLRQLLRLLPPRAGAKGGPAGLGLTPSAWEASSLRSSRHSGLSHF

[6] = Cmax in rat at 3 mg/kg, po; assay type: ADME, organism-based; parameters: dose 3 mg/kg, route oral; details: in vivo
[7] = Tmax in rat at 3 mg/kg, po; assay type: ADME, organism-based; parameters: dose 3 mg/kg, route oral; details: in vivo
[8] = test system: Rattus norvegicus; test: Reversal of hypersensitivity in FCA rat model of inflammatory pain at 5 mg/kg, po; assay type: functional

SMILES | AUC/dose [4] | IC50 [5] | Cmax [6] | Tmax [7] | other results
Cc1ccc(-c2cc(Br)ccc2OCc2ccc(F)cc2)n1-c1cccc(C(=O)O)c1 | – | – | – | – | clearance [1]: 42 mL/min/kg; Vd [2]: 0.7 L/kg; ED50 [3]: 9.2 mg/kg
COc1ccc(-n2c(C)ccc2-c2cc(Br)ccc2OCc2ccc(F)cc2F)cc1C(=O)O | 4 kg·min/L | 0.398 nM | 340 nM | 30 min | –
Cc1c(N)cc(-n2c(C)ccc2-c2cc(Br)ccc2OCc2ccc(F)cc2)cc1C(=O)O | 52 kg·min/L | 0.794 nM | 1350 nM | 66 min | Activity [8]: 50%
Cc1ccc(-c2cc(Br)ccc2OCc2ccc(F)cc2)n1-c1ccc(OC(F)F)c(C(=O)O)c1 | – | 2 nM | – | – | –
Cc1c(N)cc(-n2c(C)ccc2-c2cc(C(F)(F)F)ccc2OCc2ccc(F)cc2)cc1C(=O)O | – | 3.98 nM | – | – | –
Cc1ccc(-c2cc(Br)ccc2OCc2ccc(F)cc2)n1-c1ccc(F)c(C(=O)O)c1 | – | 1.26 nM | – | – | –
Cc1ccc(OCc2ccc(F)cc2)c(-c2ccc(C)n2-c2ccc(F)c(C(=O)O)c2)c1 | – | 15.8 nM | – | – | –

Continued, in another order:

AUC/dose [4] | IC50 [5] | Cmax [6] | Tmax [7] | SMILES | other results
31 kg·min/L | 3.98 nM | 910 nM | 30 min | Cc1c(N)cc(-n2c(C)ccc2-c2cc(C(F)(F)F)ccc2OCc2ccccc2)cc1C(=O)O | Activity [8]: 40%
9 kg·min/L | 6.31 nM | 220 nM | 240 min | Cc1ccc(-c2cc(Cl)ccc2OCc2ccccc2)n1-c1cc(C(=O)O)c2ccccc2c1 | –
9 kg·min/L | 5.01 nM | 520 nM | 30 min | Cc1ccc(-c2cc(Br)ccc2OCc2ccc(F)cc2)n1-c1cc(C(=O)O)c2ccccc2c1 | –
– | 1.26 nM | – | – | Cc1ccc(-c2cc(Cl)ccc2OCc2ccccc2)n1-c1cc(C(=O)O)c2cc[nH]c2c1 | –
27 kg·min/L | 2 nM | 870 nM | 36 min | Cc1ccc(-c2cc(C(F)(F)F)ccc2OCc2ccccc2)n1-c1ccc(F)c(C(=O)O)c1 | Activity [8]: 56%
– | 12.6 nM | – | – | Cc1ccc(-c2cc(F)ccc2OCc2ccc(F)cc2)n1-c1ccc(F)c(C(=O)O)c1 | –
– | 2.51 nM | – | – | Cc1ccc(-c2cc(Br)ccc2OCc2ccc(F)cc2)n1-c1ccc(Cl)c(C(=O)O)c1 | –
